Results as given in patent US9546156B2, “N-bicyclic aryl,N'-pyrazolyl urea, thiourea, guanidine cyanoguanidine compounds as TrkA kinase inhibitors” (Array BioPharma Inc., priority 2012, dated 2017).

Columns and labels:
Assay in all cases: Off-target kinase profiling (KinaseProfiler)
Assay type in all cases: biochemical
Conditions in all cases: 10 μM, ATP near Km
[1] = molecular target: T1, IGF-1R (Homo sapiens, UniProt P08069)
T1 construct: purchased Millipore, Inc. (KinaseProfiler service)
How it was run: (§1)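 Single-point screen at 10 μM compound, run in duplicate with ATP near the Km of each kinase. Activity is expressed as percent of control (POC), averaged across both replicates.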

[2] = molecular target: T2, DRAK1 (Homo sapiens, UniProt Q9UEE5)
T2 construct: purchased Millipore, Inc. (KinaseProfiler service)
How it was run: as §1

[3] = molecular target: T3, CK1delta (Homo sapiens, UniProt P48730)
T3 construct: purchased Millipore, Inc. (KinaseProfiler service)
How it was run: as §1

[4] = molecular target: T4, PKCtheta (Homo sapiens, UniProt Q04759)
T4 construct: purchased Millipore, Inc. (KinaseProfiler service)
How it was run: as §1

[5] = molecular target: T5, ITK (Homo sapiens, UniProt Q08881)
T5 construct: purchased Millipore, Inc. (KinaseProfiler service)
How it was run: as §1

[6] = molecular target: T6, MEK1 (Homo sapiens, UniProt Q02750)
T6 construct: purchased Millipore, Inc. (KinaseProfiler service)
How it was run: as §1

[7] = molecular target: T7, EphA3 (Homo sapiens, UniProt P29320)
T7 construct: purchased Millipore, Inc. (KinaseProfiler service)
How it was run: as §1

[8] = molecular target: T8, ULK3 (Homo sapiens, UniProt Q6PHR2)
T8 construct: purchased Millipore, Inc. (KinaseProfiler service)
How it was run: as §1

[9] = molecular target: T9, BLK_m (Mus musculus, UniProt P16277)
T9 construct: purchased Millipore, Inc. (KinaseProfiler service)
How it was run: as §1

[10] = molecular target: T10, MST2 (Homo sapiens, UniProt Q13188)
T10 construct: purchased Millipore, Inc. (KinaseProfiler service)
How it was run: as §1

[11] = molecular target: T11, Abl2 (Homo sapiens, UniProt P42684)
T11 construct: purchased Millipore, Inc. (KinaseProfiler service)
T11 sequence (P42684 whole entry): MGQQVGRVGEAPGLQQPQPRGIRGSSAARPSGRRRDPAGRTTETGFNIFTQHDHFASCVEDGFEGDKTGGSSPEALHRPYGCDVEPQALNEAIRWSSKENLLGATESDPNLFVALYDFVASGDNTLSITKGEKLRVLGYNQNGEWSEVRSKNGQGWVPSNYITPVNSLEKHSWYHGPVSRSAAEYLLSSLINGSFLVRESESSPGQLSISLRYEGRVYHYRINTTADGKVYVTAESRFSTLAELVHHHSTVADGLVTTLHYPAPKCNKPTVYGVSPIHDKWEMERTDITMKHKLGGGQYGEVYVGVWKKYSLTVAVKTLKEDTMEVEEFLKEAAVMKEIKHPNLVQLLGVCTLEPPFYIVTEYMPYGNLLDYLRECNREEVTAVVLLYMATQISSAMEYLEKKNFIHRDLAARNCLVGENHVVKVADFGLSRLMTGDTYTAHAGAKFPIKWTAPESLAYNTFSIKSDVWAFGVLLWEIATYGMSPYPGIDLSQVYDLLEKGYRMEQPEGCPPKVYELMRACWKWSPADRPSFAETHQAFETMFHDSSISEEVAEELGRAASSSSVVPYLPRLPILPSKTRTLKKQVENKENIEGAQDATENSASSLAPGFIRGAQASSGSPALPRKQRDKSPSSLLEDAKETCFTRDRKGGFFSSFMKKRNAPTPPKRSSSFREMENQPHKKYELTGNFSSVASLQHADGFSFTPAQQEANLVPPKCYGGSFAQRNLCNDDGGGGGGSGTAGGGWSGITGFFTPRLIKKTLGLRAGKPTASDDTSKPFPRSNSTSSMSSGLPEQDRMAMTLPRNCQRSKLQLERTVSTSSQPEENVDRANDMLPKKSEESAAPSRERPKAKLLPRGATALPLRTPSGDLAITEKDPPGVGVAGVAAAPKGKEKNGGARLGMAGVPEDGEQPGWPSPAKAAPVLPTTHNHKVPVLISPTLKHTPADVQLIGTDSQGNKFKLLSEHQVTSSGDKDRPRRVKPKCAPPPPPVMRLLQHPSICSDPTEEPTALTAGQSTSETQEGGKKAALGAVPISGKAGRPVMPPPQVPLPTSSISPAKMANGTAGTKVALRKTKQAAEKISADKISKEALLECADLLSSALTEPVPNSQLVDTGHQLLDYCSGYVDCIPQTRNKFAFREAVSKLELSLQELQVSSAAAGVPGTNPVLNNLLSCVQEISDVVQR
How it was run: as §1

[12] = molecular target: T12, MKK6 (Homo sapiens, UniProt P52564)
T12 construct: purchased Millipore, Inc. (KinaseProfiler service)
How it was run: as §1

[13] = molecular target: T13, PASK (Homo sapiens, UniProt Q96RG2)
T13 construct: purchased Millipore, Inc. (KinaseProfiler service)
How it was run: as §1

[14] = molecular target: T14, EphA1 (Homo sapiens, UniProt P21709)
T14 construct: purchased Millipore, Inc. (KinaseProfiler service)
How it was run: as §1

[15] = molecular target: T15, mTOR (Homo sapiens, UniProt P42345)
T15 construct: purchased Millipore, Inc. (KinaseProfiler service)
How it was run: as §1

[16] = molecular target: T16, IGF-1R Activated (Homo sapiens, UniProt P08069)
T16 construct: purchased Millipore, Inc. (KinaseProfiler service)
How it was run: as §1

[17] = molecular target: T17, SGK3 (Homo sapiens, UniProt Q96BR1)
T17 construct: purchased Millipore, Inc. (KinaseProfiler service)
How it was run: as §1

[18] = molecular target: T18, KIT (Homo sapiens, UniProt P10721)
T18 construct: purchased Millipore, Inc. (KinaseProfiler service)
How it was run: as §1

[19] = molecular target: T19, EphA7 (Rattus norvegicus, UniProt P54759)
T19 construct: purchased Millipore, Inc. (KinaseProfiler service)
How it was run: as §1

[20] = molecular target: T20, Rsk2 (Homo sapiens, UniProt P51812)
T20 construct: purchased Millipore, Inc. (KinaseProfiler service)
T20 sequence (P51812 whole entry): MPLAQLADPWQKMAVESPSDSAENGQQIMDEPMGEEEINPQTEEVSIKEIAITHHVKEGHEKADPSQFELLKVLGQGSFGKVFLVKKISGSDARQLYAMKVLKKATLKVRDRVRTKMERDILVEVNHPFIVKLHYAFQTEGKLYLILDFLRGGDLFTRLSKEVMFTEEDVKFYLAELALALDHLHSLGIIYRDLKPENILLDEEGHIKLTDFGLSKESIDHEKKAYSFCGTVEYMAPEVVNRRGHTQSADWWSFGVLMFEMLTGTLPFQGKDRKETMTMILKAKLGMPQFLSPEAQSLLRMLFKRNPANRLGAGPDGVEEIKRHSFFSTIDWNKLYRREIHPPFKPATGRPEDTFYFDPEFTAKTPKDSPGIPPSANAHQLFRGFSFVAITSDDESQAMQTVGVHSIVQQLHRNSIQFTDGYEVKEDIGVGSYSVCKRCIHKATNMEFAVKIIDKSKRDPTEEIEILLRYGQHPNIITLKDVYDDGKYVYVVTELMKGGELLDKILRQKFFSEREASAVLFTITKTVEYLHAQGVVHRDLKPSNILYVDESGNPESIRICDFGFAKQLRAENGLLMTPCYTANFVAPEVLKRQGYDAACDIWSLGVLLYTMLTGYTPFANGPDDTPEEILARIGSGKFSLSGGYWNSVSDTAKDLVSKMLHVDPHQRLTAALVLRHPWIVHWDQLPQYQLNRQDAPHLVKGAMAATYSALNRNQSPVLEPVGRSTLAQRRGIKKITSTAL
How it was run: as §1

[21] = molecular target: T21, PKCgamma (Homo sapiens, UniProt P05129)
T21 construct: purchased Millipore, Inc. (KinaseProfiler service)
How it was run: as §1

[22] = molecular target: T22, Rse (Homo sapiens, UniProt Q06418)
T22 construct: purchased Millipore, Inc. (KinaseProfiler service)
How it was run: as §1

[23] = molecular target: T23, Plk3 (Homo sapiens, UniProt Q9H4B4)
T23 construct: purchased Millipore, Inc. (KinaseProfiler service)
How it was run: as §1

[24] = molecular target: T24, NEK7 (Homo sapiens, UniProt Q8TDX7)
T24 construct: purchased Millipore, Inc. (KinaseProfiler service)
How it was run: as §1

[25] = molecular target: T25, CK1gamma1 (Homo sapiens, UniProt Q9HCP0)
T25 construct: purchased Millipore, Inc. (KinaseProfiler service)
T25 sequence (Q9HCP0 whole entry): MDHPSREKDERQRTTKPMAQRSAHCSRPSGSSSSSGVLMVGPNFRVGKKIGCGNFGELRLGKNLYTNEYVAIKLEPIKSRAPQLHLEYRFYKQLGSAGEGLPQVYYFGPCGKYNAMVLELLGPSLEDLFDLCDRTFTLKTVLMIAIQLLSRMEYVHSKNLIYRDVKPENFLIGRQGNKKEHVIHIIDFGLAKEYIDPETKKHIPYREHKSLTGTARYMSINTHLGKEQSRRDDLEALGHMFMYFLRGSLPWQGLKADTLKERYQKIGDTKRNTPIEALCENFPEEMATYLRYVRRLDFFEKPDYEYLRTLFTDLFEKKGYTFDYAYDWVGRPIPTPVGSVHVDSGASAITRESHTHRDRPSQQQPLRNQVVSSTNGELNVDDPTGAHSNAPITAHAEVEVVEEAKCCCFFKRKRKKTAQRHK
How it was run: as §1

[26] = molecular target: T26, Syk (Homo sapiens, UniProt P43405)
T26 construct: purchased Millipore, Inc. (KinaseProfiler service)
How it was run: as §1

[27] = molecular target: T27, Plk1 (Homo sapiens, UniProt P53350)
T27 construct: purchased Millipore, Inc. (KinaseProfiler service)
How it was run: as §1

[28] = molecular target: T28, DDR2 (Homo sapiens, UniProt Q16832)
T28 construct: purchased Millipore, Inc. (KinaseProfiler service)
How it was run: as §1

[29] = molecular target: T29, PKAC-alpha (Homo sapiens, UniProt P17612)
T29 construct: purchased Millipore, Inc. (KinaseProfiler service)
How it was run: as §1

[30] = molecular target: T30, ErbB4 (Homo sapiens, UniProt Q15303)
T30 construct: purchased Millipore, Inc. (KinaseProfiler service)
How it was run: as §1

[31] = molecular target: T31, BrSK1 (Homo sapiens, UniProt Q8TDC3)
T31 construct: purchased Millipore, Inc. (KinaseProfiler service)
How it was run: as §1

[32] = molecular target: T32, TAO3 (Homo sapiens, UniProt Q9H2K8)
T32 construct: purchased Millipore, Inc. (KinaseProfiler service)
How it was run: as §1

[33] = molecular target: T33, CLK2 (Homo sapiens, UniProt P49760)
T33 construct: purchased Millipore, Inc. (KinaseProfiler service)
T33 sequence (P49760 whole entry): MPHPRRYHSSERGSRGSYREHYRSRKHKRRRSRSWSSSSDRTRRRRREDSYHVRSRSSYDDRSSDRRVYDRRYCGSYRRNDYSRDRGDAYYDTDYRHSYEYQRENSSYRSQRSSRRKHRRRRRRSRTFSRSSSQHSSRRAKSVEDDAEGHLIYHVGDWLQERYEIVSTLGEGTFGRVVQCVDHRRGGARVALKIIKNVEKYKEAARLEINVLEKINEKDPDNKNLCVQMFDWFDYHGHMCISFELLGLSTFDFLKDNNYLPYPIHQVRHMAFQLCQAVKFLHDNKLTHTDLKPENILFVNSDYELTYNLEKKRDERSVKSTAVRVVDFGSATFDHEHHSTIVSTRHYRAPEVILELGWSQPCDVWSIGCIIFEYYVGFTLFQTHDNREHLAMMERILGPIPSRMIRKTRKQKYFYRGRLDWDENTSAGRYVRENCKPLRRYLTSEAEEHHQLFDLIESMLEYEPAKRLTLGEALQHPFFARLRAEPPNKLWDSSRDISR
How it was run: as §1

T1 sequence (P08069 31-1367): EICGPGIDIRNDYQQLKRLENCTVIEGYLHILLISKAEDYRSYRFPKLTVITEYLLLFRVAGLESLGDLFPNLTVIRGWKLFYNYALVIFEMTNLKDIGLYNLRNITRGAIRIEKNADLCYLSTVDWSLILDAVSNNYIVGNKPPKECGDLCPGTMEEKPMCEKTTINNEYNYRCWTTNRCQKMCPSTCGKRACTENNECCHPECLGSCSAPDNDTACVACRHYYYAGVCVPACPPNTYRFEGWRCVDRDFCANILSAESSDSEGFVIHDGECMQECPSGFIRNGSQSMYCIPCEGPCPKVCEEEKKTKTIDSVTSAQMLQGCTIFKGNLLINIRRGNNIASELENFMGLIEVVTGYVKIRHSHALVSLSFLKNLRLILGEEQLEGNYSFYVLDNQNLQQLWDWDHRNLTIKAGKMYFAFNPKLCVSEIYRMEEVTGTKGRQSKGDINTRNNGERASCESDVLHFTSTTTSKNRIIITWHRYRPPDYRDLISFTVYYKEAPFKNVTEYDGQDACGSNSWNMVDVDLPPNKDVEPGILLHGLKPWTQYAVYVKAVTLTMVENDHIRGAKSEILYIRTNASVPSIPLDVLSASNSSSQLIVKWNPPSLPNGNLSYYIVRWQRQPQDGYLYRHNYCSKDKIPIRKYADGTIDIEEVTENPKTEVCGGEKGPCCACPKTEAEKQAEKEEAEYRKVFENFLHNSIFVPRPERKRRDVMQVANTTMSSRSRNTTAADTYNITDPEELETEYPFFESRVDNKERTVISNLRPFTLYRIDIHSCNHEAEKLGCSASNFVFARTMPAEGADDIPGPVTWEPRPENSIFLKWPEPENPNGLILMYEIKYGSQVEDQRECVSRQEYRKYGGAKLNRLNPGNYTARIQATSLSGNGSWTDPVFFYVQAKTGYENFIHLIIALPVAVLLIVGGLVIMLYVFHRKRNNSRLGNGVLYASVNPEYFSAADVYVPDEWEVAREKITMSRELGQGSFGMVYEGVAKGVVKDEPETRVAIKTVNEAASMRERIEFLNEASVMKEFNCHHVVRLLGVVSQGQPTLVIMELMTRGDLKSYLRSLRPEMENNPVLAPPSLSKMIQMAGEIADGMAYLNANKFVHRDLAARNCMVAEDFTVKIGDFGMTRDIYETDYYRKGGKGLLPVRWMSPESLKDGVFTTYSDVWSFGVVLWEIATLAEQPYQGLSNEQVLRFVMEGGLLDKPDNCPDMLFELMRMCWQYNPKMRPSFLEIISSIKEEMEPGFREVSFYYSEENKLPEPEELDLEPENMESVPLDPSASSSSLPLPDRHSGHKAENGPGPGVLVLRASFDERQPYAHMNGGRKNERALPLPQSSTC

With `COCc1ccc2cccc(NC(=O)Nc3c(C)c(-c4cnn(C)c4)nn3-c3ccccc3)c2c1` [Example 16, 1-(1′,4-dimethyl-1-phenyl-1H,1′H-[3,4′-bipyrazol]-5-yl)-3-(7-(methoxymethyl)naphthalen-1-yl)urea] the “Avg POC” value [1] was 81 POC, the “Avg POC” value [2] was 136 POC and the “Avg POC” value [3] was 127.5 POC. The “Avg POC” value [4] was 124.5 POC, the “Avg POC” value [5] was 131 POC and the “Avg POC” value [6] was 114 POC. The “Avg POC” value [7] was 139.5 POC, the “Avg POC” value [8] was 98.5 POC and the “Avg POC” value [9] was 106.5 POC. The “Avg POC” value [10] was 115 POC, the “Avg POC” value [11] was 119.5 POC and the “Avg POC” value [12] was 94.5 POC. For the same compound, the “Avg POC” value [13] was 164.5 POC, the “Avg POC” value [14] was 104.5 POC and the “Avg POC” value [15] was 110 POC. The “Avg POC” value [16] was 101 POC, the “Avg POC” value [17] was 131.5 POC and the “Avg POC” value [18] was 93.5 POC. The “Avg POC” value [19] was 107 POC, the “Avg POC” value [20] was 139.5 POC and the “Avg POC” value [21] was 100.5 POC. The “Avg POC” value [22] was 120.5 POC, the “Avg POC” value [23] was 103.5 POC and the “Avg POC” value [24] was 123 POC. The “Avg POC” value [25] was 115.5 POC, the “Avg POC” value [26] was 117.5 POC and the “Avg POC” value [27] was 95 POC. For the same compound, the “Avg POC” value [28] was 117.5 POC, the “Avg POC” value [29] was 134 POC and the “Avg POC” value [30] was 118 POC. The “Avg POC” value [31] was 118 POC, the “Avg POC” value [32] was 89.5 POC and the “Avg POC” value [33] was 135 POC.
